Laboratory results: ChEMBL document CHEMBL5465560, “Selectivity Literature for EUbOPEN Chemogenomic Library” (2024)
Values belong to the compound of their own block, whether it stands above or below them.

Columns and labels:
[1] = biological target: Serine/threonine-protein kinase SIK2 (Homo sapiens) (UniProt Q9H0K1); experiment: Selectivity interaction (KinomeScan (DiscoverX)) EUB0000618a SIK2; settings: at 10 µM
[2] = biological target: Mitogen-activated protein kinase kinase kinase 4 (Homo sapiens) (UniProt Q9Y6R4); experiment: Selectivity interaction (KinomeScan (DiscoverX)) EUB0000618a MAP3K4; settings: at 10 µM
[3] = biological target: T1, cAMP-dependent protein kinase catalytic subunit PRKX (Homo sapiens) (UniProt P51817); experiment: Selectivity interaction (KinomeScan (DiscoverX)) EUB0001619a PRKX; settings: at 1 µM
T1 sequence (whole entry): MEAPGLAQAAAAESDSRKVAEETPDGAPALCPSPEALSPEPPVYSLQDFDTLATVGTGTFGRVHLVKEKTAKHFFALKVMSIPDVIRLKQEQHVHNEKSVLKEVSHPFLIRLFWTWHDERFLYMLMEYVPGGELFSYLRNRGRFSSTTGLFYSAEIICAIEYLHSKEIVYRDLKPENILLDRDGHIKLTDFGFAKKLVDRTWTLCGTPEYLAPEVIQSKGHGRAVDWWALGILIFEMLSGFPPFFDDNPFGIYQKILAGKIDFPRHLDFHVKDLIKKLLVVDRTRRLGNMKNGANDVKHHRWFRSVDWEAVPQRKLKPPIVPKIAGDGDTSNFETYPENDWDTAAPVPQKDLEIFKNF

[4] = biological target: T2, Interleukin-1 receptor-associated kinase 3 (Homo sapiens) (UniProt Q9Y616); experiment: Selectivity interaction (ActivX KiNativ screen (kinase selectivity in THP-1 cell lysates)) EUB0000639a IRAK3; format: subcellular; settings: lysate, at 0.01 µM
T2 sequence (whole entry): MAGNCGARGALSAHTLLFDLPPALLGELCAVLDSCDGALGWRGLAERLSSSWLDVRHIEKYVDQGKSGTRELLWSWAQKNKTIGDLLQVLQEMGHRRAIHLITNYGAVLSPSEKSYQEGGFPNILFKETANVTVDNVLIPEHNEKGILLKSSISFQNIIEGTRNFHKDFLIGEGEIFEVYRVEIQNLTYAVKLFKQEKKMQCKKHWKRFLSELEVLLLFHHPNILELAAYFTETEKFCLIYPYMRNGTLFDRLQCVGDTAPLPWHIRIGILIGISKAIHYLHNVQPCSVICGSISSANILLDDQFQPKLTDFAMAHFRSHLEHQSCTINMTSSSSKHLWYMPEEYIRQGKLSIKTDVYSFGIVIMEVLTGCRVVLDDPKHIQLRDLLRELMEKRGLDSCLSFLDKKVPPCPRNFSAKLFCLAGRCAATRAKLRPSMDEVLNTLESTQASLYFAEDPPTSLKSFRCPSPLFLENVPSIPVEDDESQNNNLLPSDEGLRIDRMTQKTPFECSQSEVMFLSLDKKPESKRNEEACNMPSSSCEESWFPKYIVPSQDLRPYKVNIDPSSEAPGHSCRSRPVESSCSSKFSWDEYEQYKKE

[5] = biological target: Serine/threonine-protein kinase WNK3 (Homo sapiens) (UniProt Q9BYP7); experiment: Selectivity interaction (ActivX KiNativ screen (kinase selectivity in THP-1 cell lysates)) EUB0000639a WNK3; format: subcellular; settings: lysate
Chain of Serine/threonine-protein kinase WNK3 (Homo sapiens) (Q9BYP7 whole entry): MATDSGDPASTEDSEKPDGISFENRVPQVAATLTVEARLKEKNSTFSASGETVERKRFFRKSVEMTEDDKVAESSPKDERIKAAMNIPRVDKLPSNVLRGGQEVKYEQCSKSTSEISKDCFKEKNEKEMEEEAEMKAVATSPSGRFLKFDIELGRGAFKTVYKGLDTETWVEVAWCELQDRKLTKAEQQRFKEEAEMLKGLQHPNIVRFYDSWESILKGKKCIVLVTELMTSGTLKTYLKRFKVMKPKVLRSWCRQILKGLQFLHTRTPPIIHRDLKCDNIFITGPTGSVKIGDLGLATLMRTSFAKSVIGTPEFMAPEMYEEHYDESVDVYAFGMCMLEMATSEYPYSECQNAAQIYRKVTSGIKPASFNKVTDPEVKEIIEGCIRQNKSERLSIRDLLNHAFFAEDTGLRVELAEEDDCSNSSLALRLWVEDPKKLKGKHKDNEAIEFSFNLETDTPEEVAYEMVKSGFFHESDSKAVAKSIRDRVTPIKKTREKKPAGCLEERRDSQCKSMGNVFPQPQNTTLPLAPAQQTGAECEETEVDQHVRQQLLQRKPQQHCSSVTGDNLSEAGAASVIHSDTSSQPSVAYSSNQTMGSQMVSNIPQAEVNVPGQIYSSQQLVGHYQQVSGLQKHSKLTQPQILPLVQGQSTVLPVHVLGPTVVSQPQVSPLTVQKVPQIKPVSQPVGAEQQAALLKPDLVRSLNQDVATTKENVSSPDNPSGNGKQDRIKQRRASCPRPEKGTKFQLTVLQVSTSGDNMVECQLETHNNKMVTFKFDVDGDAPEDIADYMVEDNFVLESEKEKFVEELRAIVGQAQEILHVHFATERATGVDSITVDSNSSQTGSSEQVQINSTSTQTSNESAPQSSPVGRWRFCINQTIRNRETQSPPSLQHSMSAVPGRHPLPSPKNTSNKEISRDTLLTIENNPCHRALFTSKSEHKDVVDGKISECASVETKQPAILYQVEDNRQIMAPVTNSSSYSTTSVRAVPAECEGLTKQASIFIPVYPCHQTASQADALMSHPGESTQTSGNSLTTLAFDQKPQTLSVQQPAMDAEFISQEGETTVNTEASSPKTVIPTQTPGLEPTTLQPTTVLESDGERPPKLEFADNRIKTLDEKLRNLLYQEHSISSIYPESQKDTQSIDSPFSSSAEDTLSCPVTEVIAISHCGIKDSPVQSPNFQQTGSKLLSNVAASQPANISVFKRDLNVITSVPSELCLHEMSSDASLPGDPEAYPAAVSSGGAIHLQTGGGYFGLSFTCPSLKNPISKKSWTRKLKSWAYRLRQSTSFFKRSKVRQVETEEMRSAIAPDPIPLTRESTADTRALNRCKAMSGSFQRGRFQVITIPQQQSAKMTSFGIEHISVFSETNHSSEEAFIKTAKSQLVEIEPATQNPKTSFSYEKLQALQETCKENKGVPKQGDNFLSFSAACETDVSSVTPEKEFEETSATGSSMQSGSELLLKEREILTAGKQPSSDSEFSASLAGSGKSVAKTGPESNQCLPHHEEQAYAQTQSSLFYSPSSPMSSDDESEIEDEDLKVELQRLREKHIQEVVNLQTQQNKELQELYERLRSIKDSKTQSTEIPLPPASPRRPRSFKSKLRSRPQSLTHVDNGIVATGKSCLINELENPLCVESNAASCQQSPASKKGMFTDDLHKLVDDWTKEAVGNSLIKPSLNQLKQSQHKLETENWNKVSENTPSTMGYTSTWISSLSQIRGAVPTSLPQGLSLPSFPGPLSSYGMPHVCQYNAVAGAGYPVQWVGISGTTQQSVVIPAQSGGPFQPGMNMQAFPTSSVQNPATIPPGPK

[6] = biological target: Serine/threonine-protein kinase MARK2 (Homo sapiens) (UniProt Q7KZI7); experiment: Selectivity interaction (ActivX KiNativ screen (kinase selectivity in THP-1 cell lysates)) EUB0000639a MARK2; format: subcellular; settings: lysate, at 1 µM
Chain of Serine/threonine-protein kinase MARK2 (Homo sapiens) (Q7KZI7 whole entry): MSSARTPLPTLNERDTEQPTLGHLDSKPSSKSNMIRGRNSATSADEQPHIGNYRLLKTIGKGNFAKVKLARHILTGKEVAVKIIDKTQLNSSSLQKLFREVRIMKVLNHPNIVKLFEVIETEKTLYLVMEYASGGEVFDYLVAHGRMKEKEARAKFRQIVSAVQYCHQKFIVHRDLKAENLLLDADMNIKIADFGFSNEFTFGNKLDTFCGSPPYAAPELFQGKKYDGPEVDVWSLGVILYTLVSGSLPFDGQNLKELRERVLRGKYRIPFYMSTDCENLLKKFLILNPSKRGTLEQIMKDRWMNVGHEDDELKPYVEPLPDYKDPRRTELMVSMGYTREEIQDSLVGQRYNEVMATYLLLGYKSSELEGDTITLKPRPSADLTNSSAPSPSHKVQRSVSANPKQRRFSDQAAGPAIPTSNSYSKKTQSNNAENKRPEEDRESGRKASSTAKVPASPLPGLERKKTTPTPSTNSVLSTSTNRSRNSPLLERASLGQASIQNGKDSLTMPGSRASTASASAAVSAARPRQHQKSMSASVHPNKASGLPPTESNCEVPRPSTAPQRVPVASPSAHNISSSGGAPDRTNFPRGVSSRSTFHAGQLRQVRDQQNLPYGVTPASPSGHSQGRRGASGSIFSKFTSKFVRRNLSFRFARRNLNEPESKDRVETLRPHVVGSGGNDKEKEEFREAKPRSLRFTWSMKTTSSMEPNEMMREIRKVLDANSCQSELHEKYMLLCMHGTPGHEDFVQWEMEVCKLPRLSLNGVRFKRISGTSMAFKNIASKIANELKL

[7] = biological target: T3, Serine/threonine-protein kinase Nek5 (Homo sapiens) (UniProt Q6P3R8); experiment: Selectivity interaction (KinomeScan (DiscoverX)) EUB0000229b NEK5; settings: at 10 µM
T3 sequence (whole entry): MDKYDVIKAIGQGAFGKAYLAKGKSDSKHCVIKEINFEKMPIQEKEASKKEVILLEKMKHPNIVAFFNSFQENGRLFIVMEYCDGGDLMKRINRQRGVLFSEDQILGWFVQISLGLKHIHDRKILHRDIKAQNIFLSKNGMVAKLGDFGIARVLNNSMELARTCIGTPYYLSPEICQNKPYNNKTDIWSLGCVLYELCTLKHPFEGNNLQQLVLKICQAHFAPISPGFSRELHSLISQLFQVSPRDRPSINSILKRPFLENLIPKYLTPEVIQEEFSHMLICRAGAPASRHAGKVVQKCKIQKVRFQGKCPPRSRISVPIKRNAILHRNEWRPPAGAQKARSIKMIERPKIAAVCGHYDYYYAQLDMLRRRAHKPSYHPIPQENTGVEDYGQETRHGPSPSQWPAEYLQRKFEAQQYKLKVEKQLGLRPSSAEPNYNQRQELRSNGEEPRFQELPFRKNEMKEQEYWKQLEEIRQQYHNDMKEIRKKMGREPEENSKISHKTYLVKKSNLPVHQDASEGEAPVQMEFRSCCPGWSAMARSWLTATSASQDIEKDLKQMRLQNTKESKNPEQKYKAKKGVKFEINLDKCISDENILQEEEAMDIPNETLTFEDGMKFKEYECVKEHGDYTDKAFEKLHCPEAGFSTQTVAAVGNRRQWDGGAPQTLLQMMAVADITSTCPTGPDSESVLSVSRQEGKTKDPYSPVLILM

[8] = biological target: Phosphatidylinositol 4,5-bisphosphate 3-kinase catalytic subunit gamma isoform (Homo sapiens) (UniProt P48736); experiment: Selectivity interaction (Panel of kinases, GPCRs, ion channels and transporters (enzymatic assay)) EUB0000266bCl PIK3CG
Chain of Phosphatidylinositol 4,5-bisphosphate 3-kinase catalytic subunit gamma isoform (Homo sapiens) (P48736 whole entry, looked up, canonical isoform): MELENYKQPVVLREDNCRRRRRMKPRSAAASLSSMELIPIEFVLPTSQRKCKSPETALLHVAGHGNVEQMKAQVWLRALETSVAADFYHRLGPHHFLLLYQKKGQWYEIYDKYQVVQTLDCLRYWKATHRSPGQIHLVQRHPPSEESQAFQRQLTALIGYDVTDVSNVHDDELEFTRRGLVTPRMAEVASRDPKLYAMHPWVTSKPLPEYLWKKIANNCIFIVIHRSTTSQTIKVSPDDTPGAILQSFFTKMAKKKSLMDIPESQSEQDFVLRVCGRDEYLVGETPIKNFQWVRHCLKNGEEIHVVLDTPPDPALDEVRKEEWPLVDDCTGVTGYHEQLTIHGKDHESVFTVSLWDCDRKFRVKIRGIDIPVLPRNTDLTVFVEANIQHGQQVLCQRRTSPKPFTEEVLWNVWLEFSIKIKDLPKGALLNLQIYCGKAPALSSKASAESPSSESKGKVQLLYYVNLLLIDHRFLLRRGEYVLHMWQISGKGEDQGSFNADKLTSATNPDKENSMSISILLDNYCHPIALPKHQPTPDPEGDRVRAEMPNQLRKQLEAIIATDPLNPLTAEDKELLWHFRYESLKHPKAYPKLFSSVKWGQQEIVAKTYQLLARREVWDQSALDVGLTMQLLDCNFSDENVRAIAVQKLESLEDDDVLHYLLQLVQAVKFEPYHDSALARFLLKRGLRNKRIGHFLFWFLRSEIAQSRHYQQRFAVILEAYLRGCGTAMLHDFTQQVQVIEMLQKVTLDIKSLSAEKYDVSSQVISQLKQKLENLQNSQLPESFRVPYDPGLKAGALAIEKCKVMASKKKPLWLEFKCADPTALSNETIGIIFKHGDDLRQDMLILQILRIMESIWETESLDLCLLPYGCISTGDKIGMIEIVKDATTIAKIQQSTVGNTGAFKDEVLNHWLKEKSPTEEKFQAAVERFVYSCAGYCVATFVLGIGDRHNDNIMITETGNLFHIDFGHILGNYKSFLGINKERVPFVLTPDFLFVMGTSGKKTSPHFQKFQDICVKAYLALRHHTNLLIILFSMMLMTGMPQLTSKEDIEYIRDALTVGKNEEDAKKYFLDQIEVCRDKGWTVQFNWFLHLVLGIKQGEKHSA

[9] = tested on: Mast/stem cell growth factor receptor Kit (Homo sapiens), P10721 [V559D]; experiment: (§1) Selectivity interaction (KinomeScan (DiscoverX)) EUB0000092b KIT; settings: at 10 µM
[10] = tested on: Mast/stem cell growth factor receptor Kit (Homo sapiens), P10721 [L576P]; experiment: as §1; settings: at 10 µM
[11] = biological target: Myosin light chain kinase 2, skeletal/cardiac muscle (Homo sapiens) (UniProt Q9H1R3); experiment: Selectivity interaction (KinomeScan (DiscoverX)) EUB0000092b MYLK2; settings: at 10 µM
[12] = biological target: Serine/threonine-protein kinase Chk2 (Homo sapiens) (UniProt O96017); experiment: Selectivity interaction (Kinase panel (Z-LYTE Assay)) EUB0001632a CHEK2; settings: at 10 µM

Chain of Serine/threonine-protein kinase SIK2 (Homo sapiens) (Q9H0K1 whole entry, looked up): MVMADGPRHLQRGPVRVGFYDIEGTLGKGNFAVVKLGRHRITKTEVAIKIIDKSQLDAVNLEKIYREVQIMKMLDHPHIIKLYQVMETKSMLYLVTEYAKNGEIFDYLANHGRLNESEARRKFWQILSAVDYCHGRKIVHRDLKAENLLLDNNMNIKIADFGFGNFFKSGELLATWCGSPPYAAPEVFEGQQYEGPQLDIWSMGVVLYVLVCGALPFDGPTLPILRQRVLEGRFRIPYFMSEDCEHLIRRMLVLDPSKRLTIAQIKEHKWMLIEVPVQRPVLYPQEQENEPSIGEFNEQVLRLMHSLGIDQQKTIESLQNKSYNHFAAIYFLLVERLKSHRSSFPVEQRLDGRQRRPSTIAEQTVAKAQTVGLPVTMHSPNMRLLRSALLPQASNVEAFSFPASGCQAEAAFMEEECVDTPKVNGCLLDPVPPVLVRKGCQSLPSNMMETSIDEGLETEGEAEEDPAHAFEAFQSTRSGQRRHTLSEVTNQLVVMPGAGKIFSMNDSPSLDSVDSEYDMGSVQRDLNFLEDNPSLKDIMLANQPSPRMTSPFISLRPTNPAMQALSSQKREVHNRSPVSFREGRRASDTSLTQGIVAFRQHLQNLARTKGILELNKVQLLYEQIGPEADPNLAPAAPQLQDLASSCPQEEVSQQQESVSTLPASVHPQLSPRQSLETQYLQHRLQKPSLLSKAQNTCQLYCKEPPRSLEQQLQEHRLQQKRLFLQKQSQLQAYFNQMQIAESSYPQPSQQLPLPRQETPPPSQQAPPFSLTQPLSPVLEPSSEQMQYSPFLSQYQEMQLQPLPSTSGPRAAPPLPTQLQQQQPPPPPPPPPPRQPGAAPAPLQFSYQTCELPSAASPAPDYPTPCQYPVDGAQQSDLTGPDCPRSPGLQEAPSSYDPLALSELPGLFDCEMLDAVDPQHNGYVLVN

Compound: O[C@H]1CC[C@H](Nc2ncc3nc(Nc4c(F)cc(F)cc4F)n([C@H]4CCOC4)c3n2)CC1
- % of control [1]: 33%
- % of control [2]: 100%

Compound: N#Cc1cccc(-c2c[nH]c3ncnc(N4CCOCC4)c23)c1
- % of control [3]: 100%

- % of inhibition [4]: -5.3%
- % of inhibition ([5]; at 0.01 µM): 3.3%
- % of inhibition ([5]; at 0.04 µM): -7.4%
- % of inhibition ([5]; at 0.2 µM): -12%
- % of inhibition ([5]; at 1 µM): -7.7%
- % of inhibition ([5]; at 5 µM): -14.5%
- % of inhibition [6]: 23.8%
Compound: CC[C@@H]1[C@H](F)C(=O)N[C@@H]1COc1nccc2cc(C(N)=O)c(OC)cc12 [ZIMLOVISERTIB]

Compound: COc1cc(N(C)c2ccnc3ccc(C(F)(F)F)cc23)cc(OC)c1OC
- % binding [7]: 93%

- pXC50 [8]: < 4.5 M
Compound: CCn1c(-c2nc3cc(C(=O)N4CCCC(N)C4)ccc3n2C)cc2ccccc21 (stereo unspecified)

Compound: CCC(=O)N1CCN(c2ccc(-n3c(=O)ccc4cnc5ccc(-c6cnc7ccccc7c6)cc5c43)cc2C(F)(F)F)CC1
- % of control [9]: 50%
- % of control [10]: 48%
- % of control [11]: 40%

- % of control [12]: 12.8%
Compound: Cn1cc(-n2cnc3c(NCc4nc5cc(Cl)c(Cl)cc5[nH]4)nc(N4CCOCC4)nc32)cn1
